These are literature values, as cited in patent publication US20210352892A1, “MACROMOLECULAR AND NONPARTICULATE AGROCHEMICALS TO REDUCE VAPOR DRIFT” (University of Utah Research Foundation, priority 2019, published 2021).

For this series the following is noted: at 25 ° C.

`COc1c(Cl)ccc(Cl)c1C(=O)O` [dicamba, 2-methoxy-3,6-dicholorobenzoic acid]: the vapor pressure is 4.5 mPa.
